Experimental data published in ChEMBL document CHEMBL5113468, “Design, synthesis, and biological evaluation of novel double-winged galloyl derivatives as HIV-1 RNase H inhibitors” (Eur J Med Chem, 2022).

Tests used:
[1] = target: Human immunodeficiency virus type 1 reverse transcriptase (Human immunodeficiency virus 1, UniProt Q72547); assay: (§1) Inhibition of wild-type recombinant HIV-1 group M subtype B BH10 reverse transcriptase RNase-associated RNase H activity expressed in Escherichia coli XL1 blue using 32P-labeled 5'-UUUUUUUUUAGGAUACAUAUGGUUAAAGUAU-3'/5'-ATACTTTAACCATATGTATCC-3' RNA/DNA template-primer as substrate preincubated for 5 mins followed by substrate addition and measured after 15 mins by phosphorimaging analysis
[2] = Cytotoxicity against human MT4 cells assessed as reduction in cell viability measured after 5 days by MTT assay; format: toxicity, cell-based; settings: time 5 day
[3] = Apparent permeability across apical to basolateral side in human Caco-2 cells at 2 uM measured after 2 hrs by LC-MS/MS analysis; format: ADME, cell-based
[4] = target: Human immunodeficiency virus type 1 reverse transcriptase (Human immunodeficiency virus 1) (UniProt Q72547); assay: Potency index, ratio of beta-thujaplicinol IC50 to test compound IC50 for inhibition of wild-type recombinant HIV-1 group M subtype B BH10 reverse transcriptase RNase-associated RNase H activity expressed in Escherichia coli XL1 blue
[5] = test system: Human immunodeficiency virus 2; assay: Antiviral activity against HIV2 ROD infected in human MT4 cells assessed as protection against virus-induced cytopathic effect incubated for 5 days by MTT assay; format: functional, organism-based; settings: Human immunodeficiency virus 2, ROD, MT4, 120 h
[6] = test system: Human immunodeficiency virus 1; assay: Antiviral activity against HIV1 3B infected in human MT4 cells assessed as protection against virus-induced cytopathic effect incubated for 5 days by MTT assay; format: functional, organism-based; settings: Human immunodeficiency virus 1, 3B, MT4, 120 h
[7] = target: Human immunodeficiency virus type 1 reverse transcriptase (Human immunodeficiency virus 1) (UniProt Q72547); assay: as §1, with “blue at 100 uM” for “blue”, “5'-[…]-3'/5'-[…]-3'” for “5'-UUUUUUUUUAGGAUACAUAUGGUUAAAGUAU-3'/5'-ATACTTTAACCATATGTATCC-3'”, “analysis relative to control” for “analysis”; settings: time 20.0 min

Row | SMILES | IC50 [1] | CC50 at 120 h [2] | Papp A→B at 2 h, 2 µM [3] | Ratio IC50 [4] | EC50 [5] | EC50 [6] | inhibition [7]
1 | Nc1ccc(S(=O)(=O)N2CCN(C(=O)c3cc(O)c(O)c(O)c3)C(C(=O)NCc3ccco3)C2)cc1 (centres undefined) | 0.067 µM | 24.7 µM | 0.2 ×10⁻⁶ cm/s | 30 | > 24.7 µM | > 24.7 µM | –
2 | COc1ccc(CNC(=O)C2CN(C(=O)c3cc(O)c(O)c(O)c3)CCN2S(=O)(=O)c2ccc(N)cc2)cc1 (centres undefined) | 0.14 µM | 20.4 µM | – | – | > 20.4 µM | > 20.4 µM | –
3 | N#Cc1ccc(S(=O)(=O)N2CCN(C(=O)c3cc(O)c(O)c(O)c3)C(C(=O)NCc3ccc4ccccc4c3)C2)cc1 (centres undefined) | > 20 µM | 213 µM | – | – | > 213 µM | > 213 µM | 71.9%
4 | Nc1ccc(S(=O)(=O)N2CCN(C(=O)c3cc(O)c(O)c(O)c3)C(C(=O)NCc3cccs3)C2)cc1 (centres undefined) | > 100 µM | 167 µM | – | – | > 167 µM | > 235 µM | 45%
5 | Nc1ccc(S(=O)(=O)N2CCN(C(=O)c3cc(O)c(O)c(O)c3)CC2C(=O)NCc2cccc3ccccc23)cc1 (centres undefined) | 0.22 µM | 21.6 µM | – | – | > 21.6 µM | > 21.6 µM | –
6 | Cc1ccnc2c1NC(=O)c1cccnc1N2C1CC1 [NEVIRAPINE] | – | > 15 µM | – | – | – | 0.17 µM | –
7 | COCCc1ccc(OCC(O)CNC(C)C)cc1 (centres undefined) [METOPROLOL] | – | – | < 0.48 ×10⁻⁶ cm/s | – | – | – | –
8 | Nc1ccc(S(=O)(=O)N2CCN(C(=O)c3cc(O)c(O)c(O)c3)CC2)cc1 | 0.72 µM | 18 µM | – | – | > 18 µM | > 18 µM | –
9 | N#Cc1ccc(S(=O)(=O)N2CCN(C(=O)c3cc(O)c(O)c(O)c3)C(C(=O)NCc3ccc(-c4ccccc4)cc3)C2)cc1 (centres undefined) | 0.41 µM | 7.9 µM | – | – | > 7.9 µM | > 7.9 µM | –
10 | Nc1ccc(S(=O)(=O)N2CCN(C(=O)c3cc(O)c(O)c(O)c3)C(C(=O)Nc3ccccc3)C2)cc1 (centres undefined) | 0.33 µM | 50.8 µM | – | – | > 50.8 µM | > 50.8 µM | –
11 | Nc1ccc(S(=O)(=O)N2CCN(C(=O)c3cc(O)c(O)c(O)c3)CC2C(=O)Nc2ccccc2)cc1 (centres undefined) | 0.56 µM | 19.1 µM | – | – | > 19.1 µM | > 19.1 µM | –
12 | N#Cc1ccc(S(=O)(=O)N2CCN(C(=O)c3cc(O)c(O)c(O)c3)C(C(=O)Nc3ccccc3)C2)cc1 (centres undefined) | > 20 µM | 130 µM | – | – | > 130 µM | > 130 µM | 60.6%
13 | N#Cc1ccc(S(=O)(=O)N2CCN(C(=O)c3cc(O)c(O)c(O)c3)C(C(=O)NCc3ccco3)C2)cc1 (centres undefined) | > 20 µM | 108 µM | – | – | > 108 µM | > 108 µM | 57.1%
14 | CN(C(=O)C1CN(S(=O)(=O)c2ccc(N)cc2)CCN1C(=O)c1cc(O)c(O)c(O)c1)c1ccccc1 (centres undefined) | 0.99 µM | 237 µM | – | – | > 237 µM | > 237 µM | –
15 | Nc1ccc(S(=O)(=O)N2CCN(C(=O)c3cc(O)c(O)c(O)c3)CC2C(=O)NCc2cccs2)cc1 (centres undefined) | > 100 µM | 235 µM | – | – | > 235 µM | > 235 µM | 39.6%
16 | Nc1ccc(S(=O)(=O)N2CCN(C(=O)c3cc(O)c(O)c(O)c3)CC2C(=O)NCc2ccco2)cc1 (centres undefined) | 0.13 µM | 25.3 µM | – | – | > 25.3 µM | > 25.3 µM | –
17 | Nc1ccn([C@@H]2CS[C@H](CO)O2)c(=O)n1 [LAMIVUDINE] | – | > 87.3 µM | – | – | – | – | –
18 | Nc1ccc(S(=O)(=O)N2CCN(C(=O)c3cc(O)c(O)c(O)c3)CC2C(=O)NCc2ccc(-c3ccccc3)cc2)cc1 (centres undefined) | 0.34 µM | 18.3 µM | – | – | > 18.3 µM | > 18.3 µM | –
19 | COc1ccc(CNC(=O)C2CN(S(=O)(=O)c3ccc(C#N)cc3)CCN2C(=O)c2cc(O)c(O)c(O)c2)cc1 (centres undefined) | > 10 µM | 21.4 µM | – | – | > 21.4 µM | > 21.4 µM | 81.4%
20 | Nc1ccc(S(=O)(=O)N2CCN(C(=O)c3cc(O)c(O)c(O)c3)C(C(=O)NCc3ccc(-c4ccccc4)cc3)C2)cc1 (centres undefined) | > 100 µM | 207 µM | – | – | > 207 µM | > 207 µM | 47.6%
21 | CC(C)(C)OC(=O)N1CCC2(CCN(C(=O)C3CN(C(=O)c4cc(O)c(O)c(O)c4)CCN3S(=O)(=O)c3ccc(N)cc3)C2)C1 (centres undefined) | 0.18 µM | 42 µM | – | – | > 42 µM | > 42 µM | –
22 | CN(C(=O)C1CN(S(=O)(=O)c2ccc(C#N)cc2)CCN1C(=O)c1cc(O)c(O)c(O)c1)c1ccccc1 (centres undefined) | 0.31 µM | 113 µM | – | – | > 113 µM | > 113 µM | –
23 | CN(C(=O)C1CN(C(=O)c2cc(O)c(O)c(O)c2)CCN1S(=O)(=O)c1ccc(N)cc1)c1ccccc1 (centres undefined) | 1.78 µM | 135 µM | – | – | > 135 µM | > 135 µM | –
24 | COc1ccc(CNC(=O)C2CN(S(=O)(=O)c3ccc(N)cc3)CCN2C(=O)c2cc(O)c(O)c(O)c2)cc1 (centres undefined) | 0.27 µM | 21.7 µM | – | – | > 21.7 µM | > 21.7 µM | –
25 | CC(C)c1ccc(O)c(=O)c(O)c1 [BETA-THUJAPLICINOL] | – | – | – | – | > 2.5 µM | > 2.5 µM | –
